Legend:
Assay in all cases: Postemergence herbicidal activity, greenhouse, visual injury after 20-22 d
Assay type in all cases: in vivo
[1] = test system: barnyardgrass (Echinochloa crus-galli, ECHCG); details: two trials
Description: (§1) Seeds of the desired test plant species were planted in Sun Gro MetroMix® 306 planting mixture, which typically has a pH of 6.0 to 6.8 and an organic matter content of about 30 percent, in plastic pots with a surface area of 103.2 square centimeters (cm^2). When required to ensure good germination and healthy plants, a fungicide treatment and/or other chemical or physical treatment was applied. The plants were grown for 7-36 days (d) in a greenhouse with an approximate 14-hour (h) photoperiod which was maintained at about 23° C. during the day and 22° C. during the night. Nutrients and water were added on a regular basis and supplemental lighting was provided with overhead metal halide 1000-Watt lamps as necessary. The plants were employed for testing when they reached the second or third true leaf stage.
(§2) An emulsifiable concentrate (EC) formulation containing Compound 1 at 100 gai/L was prepared by combining Compound 1 with 1-butyl-2-pyrrolidinone (Tamisolve NxG; 360.5 g/L), benzyl acetate (544.6 g/L) and Agnique MBL 520L surfactant (52.9 g/L). […] The concentrated stock solutions were diluted with an aqueous mixture of 1.5% v/v of Agri-dex crop oil concentrate to provide the appropriate application rates. Compound requirements are based upon a 12 milliliter (mL) application volume at a rate of 187 liters per hectare (L/ha). Spray solutions of the experimental compound mixtures were prepared by adding the stock solutions to the appropriate amount of dilution solution to form a 12 mL spray solution in two-way combinations. Formulated compounds were applied to the plant material with an overhead Mandel track sprayer equipped with 8002E nozzles calibrated to deliver 187 L/ha over an application area of 0.503 square meters (m^2) at a spray height of […] above average plant canopy. Control plants were sprayed in the same manner with the solvent blank. Application rates for component (a) are in g ai/ha, and application rates for component (b) are in g ai/ha.
(§3) The treated plants and control plants were placed in a greenhouse as described above and watered by sub-irrigation to prevent wash-off of the test compounds. After 20-22 d, the condition of the test plants as compared with that of the control plants was determined visually and scored on a scale of 0 to 100 percent where 0 corresponds to no injury and 100 corresponds to complete kill. […] The Colby method was used to determine the herbicidal effects expected from the mixtures.

[2] = test system: common chickweed (Stellaria media, STEME); details: two trials
Description: as §1, §2, §3

[3] = test system: common lambsquarters (Chenopodium album L., CHEAL)
Description: as §1, §2, §3

[4] = test system: giant foxtail (Setaria faberi, SETFA); details: two trials
Description: as §1, §2, §3

[5] = test system: grain sorghum (Sorghum vulgare, SORVU); details: two trials
Description: as §1, §2, §3

[6] = test system: ivyleaf morningglory (Ipomoea hederacea, IPOHE); details: two trials
Description: as §1, §2, §3

[7] = test system: kochia (Kochia scoparia, KCHSC)
Description: as §1, §2, §3

[8] = test system: large crabgrass (Digitaria sanguinalis, DIGSA); details: HPPD inhibitor 35 g ai/ha alone, two trials
Description: as §1, §2, §3

maize (Zea mays, ZEAMX) = details: two trials
Description: as §1, §2, §3

[9] = test system: pigweed (Amaranthus retroflexus, AMARE); details: two trials
Description: as §1, §2, §3

[10] = test system: poinsettia (Euphorbia heterophylla, EPHHL)
Description: as §1, §2, §3

[11] = test system: soybean (Glycine max, GLXMA); details: two trials
Description: as §1, §2, §3

[12] = test system: spring rape (Brassica napus, BRSNN)
Description: as §1, §2, §3

[13] = test system: sunflower (Helianthus annuus, HELAN); details: two trials
Description: as §1, §2, §3

[14] = test system: thistle (Cirsium arvense CIRAR)
Description: as §1, §2, §3

[15] = test system: velvetleaf (Abutilon theophrasti, ABUTH)
Description: as §1, §2, §3

[16] = test system: wild buckwheat (Polygonum convolvulus, POLCO)
Description: as §1, §2, §3

[17] = test system: wild pansy (Viola tricolor, VIOTR)
Description: as §1, §2, §3

[18] = test system: winter rape (Brassica napus, BRSNW); details: two trials
Description: as §1, §2, §3

[19] = test system: rice (Oryza sativa, ORYSA); details: Sulcotrione 75 g ai/ha alone, two trials
Description: as §1, §2, §3

[20] = test system: winter wheat (Triticum aestivum, TRZAW); details: Sulcotrione 75 g ai/ha alone, two trials
Description: as §1, §2, §3

[21] = HPPD inhibitor 35 g ai/ha alone
[22] = HPPD inhibitor 35 g ai/ha alone, two trials
[23] = Sulcotrione 75 g ai/ha alone, two trials

For CS(=O)(=O)c1ccc(C(=O)C2C(=O)CCCC2=O)c([N+](=O)[O-])c1 [Mesotrione, 2-[4-(methylsulfonyl)-2-nitrobenzoyl]-1,3-cyclohexanedione], the “Effect (% visual injury), Obs” value [1, 21] was 10%, the “Effect (% visual injury), Obs” value [2, 21] was 60% and the “Effect (% visual injury), Obs” value [3, 22] was 100%. For the same compound, the “Effect (% visual injury), Obs” value [4, 21] was 0%, the “Effect (% visual injury), Obs” value [5, 21] was 0% and the “Effect (% visual injury), Obs” value [6, 21] was 70%. For the same compound, the “Effect (% visual injury), Obs” value [7, 22] was 70%, the “Effect (% visual injury), Obs” value [8] was 20% and the “Effect (% visual injury), Obs” value (maize (Zea mays, ZEAMX); [21]) was 0%. For the same compound, the “Effect (% visual injury), Obs” value [9, 21] was 30%, the “Effect (% visual injury), Obs” value [10, 22] was 20% and the “Effect (% visual injury), Obs” value [11, 21] was 70%. For the same compound, the “Effect (% visual injury), Obs” value [12, 22] was 100%, the “Effect (% visual injury), Obs” value [13, 21] was 93% and the “Effect (% visual injury), Obs” value [14, 22] was 100%. The “Effect (% visual injury), Obs” value [15, 22] was 88%, the “Effect (% visual injury), Obs” value [16, 22] was 48% and the “Effect (% visual injury), Obs” value [17, 22] was 58%. The “Effect (% visual injury), Obs” value [18, 21] was 60%.

Cc1ccc(S(=O)(=O)Oc2c(C(=O)c3ccc(Cl)cc3Cl)c(C)nn2C)cc1 [Pyrazolynate, (2,4-dichlorophenyl)[1,3-dimethyl-5-[[(4-methylphenyl)sulfonyl]oxy]-1H-pyrazol-4-yl]methanone] was tested, and the “Effect (% visual injury), Obs” value ([3]; Pyrazolynate 225 g ai/ha alone) was 10%, the “Effect (% visual injury), Obs” value ([7]; Pyrazolynate 225 g ai/ha alone) was 0% and the “Effect (% visual injury), Obs” value ([10]; Pyrazolynate 225 g ai/ha alone) was 0%. The “Effect (% visual injury), Obs” value ([12]; Pyrazolynate 225 g ai/ha alone) was 0%, the “Effect (% visual injury), Obs” value ([14]; Pyrazolynate 225 g ai/ha alone) was 0% and the “Effect (% visual injury), Obs” value ([15]; Pyrazolynate 225 g ai/ha alone) was 0%. For the same compound, the “Effect (% visual injury), Obs” value ([16]; Pyrazolynate 225 g ai/ha alone) was 0% and the “Effect (% visual injury), Obs” value ([17]; Pyrazolynate 225 g ai/ha alone) was 0%.

For CS(=O)(=O)c1ccc(C(=O)C2C(=O)CCCC2=O)c(Cl)c1 [Sulcotrione, 2-[2-chloro-4-(methylsulfonyl)benzoyl]-1,3-cyclohexanedione], the “Effect (% visual injury), Obs” value ([1]; Sulcotrione 75 g ai/ha alone) was 40%, the “Effect (% visual injury), Obs” value ([2]; Sulcotrione 75 g ai/ha alone) was 85% and the “Effect (% visual injury), Obs” value [3, 23] was 100%. The “Effect (% visual injury), Obs” value ([4]; Sulcotrione 75 g ai/ha alone) was 0%, the “Effect (% visual injury), Obs” value ([5]; Sulcotrione 75 g ai/ha alone) was 0% and the “Effect (% visual injury), Obs” value ([6]; Sulcotrione 75 g ai/ha alone) was 65%. The “Effect (% visual injury), Obs” value [7, 23] was 45%, the “Effect (% visual injury), Obs” value (maize (Zea mays, ZEAMX); Sulcotrione 75 g ai/ha alone) was 0% and the “Effect (% visual injury), Obs” value ([9]; Sulcotrione 75 g ai/ha alone) was 40%. For the same compound, the “Effect (% visual injury), Obs” value [10, 23] was 60%, the “Effect (% visual injury), Obs” value [19] was 5% and the “Effect (% visual injury), Obs” value ([11]; Sulcotrione 75 g ai/ha alone) was 65%. For the same compound, the “Effect (% visual injury), Obs” value [12, 23] was 95%, the “Effect (% visual injury), Obs” value ([13]; Sulcotrione 75 g ai/ha alone) was 80% and the “Effect (% visual injury), Obs” value [14, 23] was 70%. The “Effect (% visual injury), Obs” value [15, 23] was 50%, the “Effect (% visual injury), Obs” value [16, 23] was 48% and the “Effect (% visual injury), Obs” value [17, 23] was 73%. The “Effect (% visual injury), Obs” value ([18]; Sulcotrione 75 g ai/ha alone) was 70% and the “Effect (% visual injury), Obs” value [20] was 0%.
